Results from PubChem BioAssay (NCI).
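Five concentrations, 48 hours, 96-well plates. GI50: concentration for 50% inhibition of growth. TGI marks complete inhibition of growth.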

What was measured:
Assay in all cases: DTP human tumour cell line panel, 48 h
[1] = test system: MDA-MB-468 breast
[2] = test system: DU-145 prostate
[3] = test system: SK-OV-3 ovarian
[4] = test system: CAKI-1 renal
[5] = test system: HS 578T breast
[6] = test system: NCI-H226 lung
[7] = test system: A498 renal
[8] = test system: EKVX NSCLC
[9] = test system: SN12C renal
[10] = test system: OVCAR-3 ovarian
[11] = test system: HL-60(TB) leukemia
[12] = test system: UO-31 renal
[13] = test system: TK-10 renal
[14] = test system: SNB-75 CNS
[15] = test system: T-47D breast
[16] = test system: SNB-19 CNS
[17] = test system: SF-268 CNS
[18] = test system: BT-549 breast
[19] = test system: OVCAR-4 ovarian
[20] = test system: CCRF-CEM leukemia
[21] = test system: SK-MEL-28 melanoma
[22] = test system: 786-0 renal
[23] = test system: HOP-62 NSCLC
[24] = test system: HOP-92 NSCLC
[25] = test system: MOLT-4 leukemia
[26] = test system: UACC-62 melanoma
[27] = test system: SR leukemia
[28] = test system: OVCAR-5 ovarian
[29] = test system: PC-3 prostate

CN1CCN(Cc2ccc(NC(=O)c3cncc(C#Cc4cnc5ccc(O[C@@H]6CCOC6)nn45)c3)cc2C(F)(F)F)CC1
GI50 [1]: 0.209 µM | TGI [1]: 0.834 µM

COc1cc2c(c(OC)c1OC)-c1ccc(OC)c(=O)cc1[C@@H](NC(=O)c1ccccc1)CC2
GI50 [1]: 0.0552 µM | TGI [1]: > 100 µM

COC(=O)[C@H](C)NC(=O)NC(=O)NC(=O)CI
GI50 [1]: 9.14 µM | TGI [1]: 23.5 µM

CCCCCCCC/C=C/CCCCCCCC(=O)OC[C@H]1O[C@@H](n2ccc(N)nc2=O)C(F)(F)[C@@H]1O
GI50 [1]: < 0.0289 µM | TGI [1]: 3.76 µM

COc1ccc(Cn2cc3c(c2-c2ccccc2)CC(C)(C)c2cnoc2-3)cc1
GI50 [1]: 0.542 µM | TGI [1]: 5.91 µM

CC(C)n1nc(-c2cc3cc(O)ccc3[nH]2)c2c(N)ncnc21
GI50 [1]: 0.163 µM | TGI [1]: 1.01 µM

COC(=O)[C@@H](C)CNS(=O)(=O)N(c1cc(C(F)(F)F)cc(C(F)(F)F)c1)C1CCN(Cc2ccc(F)cc2)CC1
GI50 [1]: 3.25 µM | TGI [1]: 15.3 µM

CN(C)C(=O)c1cc2cnc(Nc3ccc(-c4csc5c(=S)cc(N6CCOCC6)oc45)cc3)nc2n1C1CCCC1
GI50 [1]: 0.397 µM | TGI [1]: 2.37 µM

CN1C/C=C\CCOc2cccc(c2)-c2ccnc(n2)Nc2cccc(c2)C1
GI50 [1]: 0.0642 µM | TGI [1]: 0.289 µM

NC(=O)c1c(NC(=O)c2ccc(C(F)(F)F)cc2)sc2c1CCC(=O)C2
GI50 [1]: 1.66 µM | TGI [1]: 4.22 µM

NS(=O)(=O)c1ccc(N=Nc2c(O)[nH]c3ccc(-c4cnco4)cc23)cc1
GI50 [1]: > 25 µM | TGI [1]: > 25 µM

CNCc1cccc2c1OCCCCCC[C@@](C)(O)CC1(CC1)S(=O)(=O)c1ccc(cc1)-c1cnc(N)c(n1)C(=O)N2
GI50 [2]: 1.03 µM | TGI [2]: 2.88 µM | GI50 [3]: 1.54 µM | TGI [3]: 19.4 µM | GI50 [4]: 0.365 µM | TGI [4]: 5.76 µM | GI50 [5]: 0.28 µM | TGI [5]: 4.3 µM | GI50 [6]: 1.53 µM | TGI [6]: 4.18 µM | GI50 [7]: 3.93 µM | TGI [7]: 25.4 µM | GI50 [8]: 1.42 µM | TGI [8]: 4.86 µM | GI50 [9]: 1.26 µM | TGI [9]: 13.9 µM | GI50 [10]: 1.26 µM | TGI [10]: 4.73 µM | GI50 [11]: 0.0197 µM | TGI [11]: 0.324 µM | GI50 [12]: 0.0741 µM | TGI [12]: 2.15 µM | GI50 [13]: 1.55 µM | TGI [13]: 18.6 µM | GI50 [14]: 0.213 µM | TGI [14]: 16.3 µM | GI50 [15]: 3.24 µM | TGI [15]: > 88.8 µM | GI50 [16]: 1.88 µM | TGI [16]: 4.36 µM | GI50 [17]: 1.41 µM | TGI [17]: 4.18 µM | GI50 [18]: 0.716 µM | TGI [18]: 14.5 µM | GI50 [19]: 2.93 µM | TGI [19]: 26.3 µM | GI50 [20]: 0.0102 µM | TGI [20]: 0.634 µM | GI50 [21]: 1.3 µM | TGI [21]: 2.65 µM | GI50 [22]: 0.0536 µM | TGI [22]: 14.2 µM | GI50 [23]: 1.98 µM | TGI [23]: 4.65 µM | GI50 [24]: 1.82 µM | TGI [24]: 4.55 µM | GI50 [25]: 0.0102 µM | TGI [25]: 2.19 µM | GI50 [26]: 1.6 µM | TGI [26]: 3.06 µM | TGI [27]: 0.173 µM | GI50 [28]: 2 µM | TGI [28]: 5.82 µM | GI50 [29]: 0.599 µM | TGI [29]: 3.82 µM

O=C1OC(C(O)CO)C(=O)C1=O (stereo not drawn)
GI50 [1]: 1810 µM | TGI [1]: 4350 µM

COc1cc2nc3cc([N+](=O)[O-])ccc3c(NCCCNCCO)c2cc1OC
GI50 [1]: 0.193 µM | TGI [1]: 0.467 µM

O=C(N/N=C/c1ccc(Cl)cc1)c1ccc(C(F)(F)F)nc1Nc1cccc(C(F)(F)F)c1
GI50 [1]: 1.12 µM | TGI [1]: 4.28 µM

CCOC(=O)[C@@H](N)CCC(=O)N[C@@H](CSCc1ccccc1)C(=O)N[C@@H](C(=O)OCC)c1ccccc1
GI50 [1]: 11.9 µM | TGI [1]: 24.9 µM

COc1cc(/C=C/c2cc(/C=C/c3ccc(O)c(OC)c3)n(C(=O)Nc3ccc(F)c(Cl)c3)n2)ccc1O
GI50 [1]: 0.266 µM | TGI [1]: 0.829 µM

CNc1ccc(C(=O)CC(O)CCC(C)C2OC(=O)CC(O)CC(=O)CC(O)CC(O)CC(O)CC(O)CC3(O)CC(O)C(C(=O)OC)C(CC(O[C@@H]4O[C@H](C)[C@@H](O)[C@H](N)[C@@H]4O)/C=C/C=C/C=C/C=C/C=C/C=C/C=C/C2C)O3)cc1 (stereo partly drawn)
GI50 [1]: 5.14 µM | TGI [1]: 25 µM

CCCCC(O)(c1ccc(Cl)cc1)C(CN1CCOCC1)c1ccc(Cl)cc1 (stereo not drawn)
GI50 [1]: 11.2 µM | TGI [1]: 25.9 µM

CC(C)(C)c1cc(C(C)(C)C)cc(S(=O)(=O)Nc2cc3ccccc3cc2C(=O)NCCN)c1
GI50 [1]: 1.85 µM | TGI [1]: 3.39 µM

COc1ccccc1CNCCCN1C(=O)c2ccc3c4c(ccc(c24)C1=O)C(=O)N(CCCOCCCCOCCCN)C3=O
GI50 [1]: 0.288 µM | TGI [1]: 1.32 µM

CN1CCN(CCCOc2ccc3nc(Nc4ccc(Cl)c(C(F)(F)F)c4)ccc3c2)CC1
GI50 [1]: 12.2 µM | TGI [1]: 26.9 µM

C=C1C(=O)O[C@H]2[C@H]1CC/C(COC(=O)C(=O)c1cn(Cc3ccccc3)c3ccccc13)=C\CC[C@@]1(C)O[C@@H]21
GI50 [1]: 1.88 µM | TGI [1]: 3.8 µM

COc1cc2ncnc(Nc3ccc(C)c(O)c3)c2cc1OC
GI50 [1]: 2.39 µM | TGI [1]: 8.87 µM

c1cc(CNC23CC4CC(CC(C4)C2)C3)cc(C[N+](Cc2cccc(CNC34CC5CC(CC(C5)C3)C4)c2)(Cc2cccc(CNC34CC5CC(CC(C5)C3)C4)c2)Cc2cccc(CNC34CC5CC(CC(C5)C3)C4)c2)c1 (stereo not drawn)
GI50 [1]: 3.33 µM | TGI [1]: 7.03 µM

COc1ccc(-c2n[nH]nc2-c2cc(OC)c(OC)c(OC)c2)cc1
GI50 [1]: < 0.01 µM | TGI [1]: < 0.01 µM

O=C(NC1=CC(=O)c2ccccc2C1=O)c1ccccc1
GI50 [1]: 1.08 µM | TGI [1]: 2.41 µM

COc1cc(-c2ccc3c(c2)NC(=O)/C3=C\c2ccc[nH]2)ccc1O
GI50 [1]: 0.179 µM | TGI [1]: > 50 µM

C[C@@]12CC=C3c4nc(Nc5cccc(O)c5)sc4CC[C@]3(C)[C@H]1CC[C@]1(C)C(=O)CC[C@@H]21
GI50 [1]: 2.29 µM | TGI [1]: 5.21 µM

COc1nc2ccccc2cc1-c1nc2c(cnn2-c2ccc(Br)cc2)c(=O)[nH]1
GI50 [1]: 0.0219 µM | TGI [1]: 0.616 µM
